Results on 2 compounds are retold here after patent US12377069B2, “Compounds, compositions, methods of using, and methods for preparing compounds” (UNIVERSITY OF LOUISVILLE RESEARCH FOUNDATION, INC., priority 2018, dated 2025).

Series [1] concerns Snail transgenic mice. The series is described as follows: Scleroderma model in Snail transgenic mice. The series is classed as in vivo, mouse. The procedure: UAS03 attenuates Scleroderma associated vascular permeability in Snail transgenic mice. Calorimetric quantification of Evan's blue dye extracted from back skin using UV spectrophotometer. […] Animals treated with UAS03 show more than 3-fold reduction in the dye leakage (FIG. 24).
Expression for fibrosis associated genes in the back skin of the Snail transgenic mice. The mRNA levels of the Collagen 1 were measured in back skin using RT-qPCR. […] The expression in UAS03 treated group, in both males and females, were reduced. The levels were separately assessed in males and females in vehicle and drug treated animals (FIG. 25).

For series [2], the target named is P-glycoprotein (P-gp) (Homo sapiens, UniProt P08183). An excerpt: Therefore, blocking its activity and/or downregulating the expression of BCRP, P-gp could reverse the effect and sensitize the cancer cells.
Series [3] relates to human primary monocytes. Nature of the series: LPS and EtOH induced TNF-α in human primary monocytes. The series is classed as cell-based. Particulars: EtOH 25 mM 7 days; LPS 50 ng/ml. The method, then:
FIG. 11: UroA reduces the LPS and EtOH induced TNF-α in human primary monocytes. (A) Human primary monocytes treated with UroA and LPS (50 ng/ml) for 6 h. The TNF-α in supernatant was measured. (B) Human primary monocytes were exposed to EtOH (25 mM) for 7 days. LPS (50 ng/ml) and UroA were added at day 6 and incubated for 24 h. The TNF-α levels in supernatant were measured using standard ELISA methods. Statistics performed using unpaired t-test using Graphpad Prism software. Error bars, ±SEM; ***p<0.001; **p<0.01
UroA reduces the LPS and EtOH induced TNF-α in human primary monocytes. Peripheral blood monocytes from chronic alcoholism patients produce increased spontaneous inflammatory mediators such as TNF-α, IL-6, IL-10 and IL-12. To mimic this condition, healthy peripheral blood monocytes were exposed for one week and tested whether UroA/UAS03 reduce the LPS-induced TNF-α.

Series [4] deals with C57BL/6 mice. Nature of the series: Acute (binge) alcohol ALD model. The series is classed as in vivo, mouse. The procedure: FIG. 15: UroA treatment reduces binge EtOH-induced ALD. (A) Acute alcohol model: Female wild type (C547BL/6) mice (n=6/group) were oral gavaged with alcohol (5 g/kg) at 0, 12 and 24 h. Mice were treated with Veh (0.25% CMC) or UroA (20 mg/kg) at 2, 14 and 26 h. Mice were euthanized at 32 h. (B) In vivo permeability was measured by determining serum levels of FITC-Dextran post 4 h oral gavage of FITC-dextran (C) Fecal albumin was measured using standard ELISA. (D-I) Indicated serum cytokines/markers levels were measured in serum using standard ELISA. (J) The levels of triglycerides (TGs) in liver were measured using ELISA methods. Error bars, ±SEM. Statistics were performed using 2 way ANOVA multiple comparisons. * p<0.05, ** p<0.01, *** p<0.001.
Treatment with UroA mitigates acute and chronic alcohol liver disease. To examine therapeutic efficacies of UroA in ALD, we adopted acute mouse model as developed by Gao B group (NIAAA) (BERTOLA et al., (2013) “Mouse model of chronic and binge ethanol feeding (the NIAAA model)” Nat Protoc. Vol. 8, No. 3, pp. 627-637). We tested therapeutic efficacies of UroA in this model.

In series [5] the test system is C57BL/6 mice. The series is described as follows: Chronic low dose alcohol model. The series is classed as in vivo, mouse. Particulars: 20 mg/kg orally 2 h prior to EtOH 3 g/kg twice daily, 5 days. The method, then: C57BL/6 mice (10 wk old age) were used in low dose chronic ALD models. Mice were treated with EtOH (3 g/kg) daily twice orally for 5 days at 3 g/kg, UroA (20 mg/kg) was given orally 2 h prior to EtOH treatment. Mice were euthanized on day 6 and analyzed the indicated parameters. Error bars, ±SEM. Statistics were performed using 2 way ANOVA multiple comparisons. * p<0.05, ** p<0.01, *** p<0.001.
C57BL/6 mice (n=5 per group) were treated with EtOH (3 g/kg) twice daily orally for 5 days. UroA (20 mg/kg) was given orally 2 h prior to EtOH treatment. We evaluated gut permeability and inflammation parameters both in serum and liver (FIG. 17).

Structures are written as SMILES.

Sequence of P-glycoprotein (P-gp) (P08183 whole entry): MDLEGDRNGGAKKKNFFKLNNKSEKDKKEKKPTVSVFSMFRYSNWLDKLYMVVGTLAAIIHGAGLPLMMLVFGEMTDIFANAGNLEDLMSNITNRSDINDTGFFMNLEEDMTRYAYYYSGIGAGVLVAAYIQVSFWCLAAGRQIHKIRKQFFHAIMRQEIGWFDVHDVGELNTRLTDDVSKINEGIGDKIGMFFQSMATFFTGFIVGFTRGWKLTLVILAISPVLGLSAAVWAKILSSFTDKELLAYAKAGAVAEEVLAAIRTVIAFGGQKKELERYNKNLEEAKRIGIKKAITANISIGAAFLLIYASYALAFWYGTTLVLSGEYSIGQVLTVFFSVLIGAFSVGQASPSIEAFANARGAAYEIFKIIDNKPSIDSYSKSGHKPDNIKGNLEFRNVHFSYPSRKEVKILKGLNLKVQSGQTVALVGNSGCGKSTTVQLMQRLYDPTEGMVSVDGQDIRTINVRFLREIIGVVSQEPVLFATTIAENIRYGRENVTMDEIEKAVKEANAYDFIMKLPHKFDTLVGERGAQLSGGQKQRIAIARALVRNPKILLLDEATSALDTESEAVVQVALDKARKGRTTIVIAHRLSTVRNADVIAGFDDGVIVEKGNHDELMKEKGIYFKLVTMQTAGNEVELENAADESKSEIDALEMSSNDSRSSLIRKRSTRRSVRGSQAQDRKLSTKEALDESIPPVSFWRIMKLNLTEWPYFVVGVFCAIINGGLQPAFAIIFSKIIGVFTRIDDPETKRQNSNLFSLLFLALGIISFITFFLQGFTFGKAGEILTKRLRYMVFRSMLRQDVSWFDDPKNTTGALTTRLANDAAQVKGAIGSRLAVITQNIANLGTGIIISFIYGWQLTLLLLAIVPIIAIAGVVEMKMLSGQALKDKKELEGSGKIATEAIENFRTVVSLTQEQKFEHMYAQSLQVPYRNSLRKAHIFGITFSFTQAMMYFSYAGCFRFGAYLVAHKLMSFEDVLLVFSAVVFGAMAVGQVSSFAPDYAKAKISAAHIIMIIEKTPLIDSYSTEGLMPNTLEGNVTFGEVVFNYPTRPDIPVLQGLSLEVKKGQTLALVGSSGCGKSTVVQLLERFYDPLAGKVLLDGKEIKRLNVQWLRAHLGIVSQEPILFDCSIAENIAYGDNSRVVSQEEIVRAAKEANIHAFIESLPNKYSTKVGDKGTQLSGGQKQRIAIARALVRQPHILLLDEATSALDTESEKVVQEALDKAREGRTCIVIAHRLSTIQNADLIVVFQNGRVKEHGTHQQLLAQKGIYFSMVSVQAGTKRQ

`Oc1ccc2c(c1)COc1cc(O)ccc1-2` [UAS03, 6H-benzo[c]chromene-3,8-diol]: the “reduction in Evan's blue dye leakage in back skin” value in series [1] (Snail transgenic mice) was “more than 3 fold”. Moreover, in series [1] (males and females, RT-qPCR), the “Collagen 1 mRNA expression in back skin” value is listed as “reduced”.

On to `O=c1oc2cc(O)ccc2c2ccc(O)cc12` [UroA, 3,8-dihydroxy-6H-dibenzo[b,d]pyran-6-one], for which the “drug efflux activity of P-glycoprotein (P-gp)” value in series [2] is “decreased drug efflux activities”. For the same compound, the “efflux of Rh123” value in series [2] (50 μM) is reported as “blocked efflux of Rh123”. Besides, in series [3], the “LPS-induced TNF-α in chronically EtOH exposed human monocytes” value is reported as “reduced”. The “TJ protein (ZO-1) disruption at intestines” value in series [4] (20 mg/kg) was “protects against TJ protein (ZO-1) disruption”. In series [4] (20 mg/kg at 2, 14 and 26 h), the “TG accumulation in liver” value is reported as “reduced TG accumulation in liver”; the “circulating serum ALT, AST levels” value is given as “reduced”; the “systemic inflammation (serum IL-6, TNF-α, IL-1β, endotoxins)” value is recorded as “reduced”. In addition, in series [5], the “chronic low dose alcohol induced gut barrier dysfunction and inflammation” value is recorded as “protects against”.
